The target of one data set is mutant (F36V) FKBP. As to the kind of experiment: Competitive Binding FP Assay. Details: species or system human.
For another data set, the target named is wild-type human FKBP12 (Homo sapiens, UniProt P62942). Kind of data set: Competitive Binding FP Assay.
The target of a further data set is F36L mutant FKBP (Homo sapiens, UniProt P62942, F37L). Kind of data set: Competitive Binding FP Assay.
The target of another data set is F36I mutant FKBP. As to the kind of experiment: Competitive Binding FP Assay. The conditions noted are these: Synthetic Monomers table; normalized to value of FK506 run in the same experiment. Also on record: species or system human.
A further data set concerns the target F36M mutant FKBP. As to the kind of experiment: Competitive Binding FP Assay. Also on record: species or system human. Particulars: Synthetic Monomers table; normalized to value of FK506 run in the same experiment.
In a further data set the target is F36A mutant FKBP. As to the kind of experiment: Competitive Binding FP Assay. The conditions noted are these: Synthetic Monomers table; normalized to value of FK506 run in the same experiment. Details: species or system human.
In data set [1] the test system is FAS-FKBP fusion (wt FKBP) in HT1080 cells. The data set is classed as cell-based, human. Particulars: for Fas killing (wt, stable): % @ 1000: human, ht1080 cells, 1 µM.
Source text: In this case, one uses cells which constituively express a detectable product. The cells also contain and are capable of expressing DNAs encoding chimeric proteins comprising one or more immunophilin-derived ligand binding domains and one or more effector domains, such as the intracellular domain of FAS, capable, upon multimerization, of triggering cell death. […] The cells are maintainined or cultured in a culture medium permitting cell growth or continued viability. The cells or medium are assayed for the presence of the constitutive cellular product, and a base-line level of reporter is thus established. One may use cells engineered for constituive production of hGH or any other conveniently detectable product to serve as the reporter. The compound to be tested is addded to the medium, the cells are incubated, and the cells or medium is tested for the presence of reporter at one or more time points. Decrease in reporter production indicates cell death, an indirect measure of multimerization of the fusion proteins.
The ability of a dimerizer to activate the Fas signal transduction pathway and trigger cell death in cells engineered to express a FAS-FKBP fusion can be tested in cells appropriately transduced by retroviral vectors to express the desired fusion protein. […] The retroviral supernatant is used to transduce target cells. To screen compounds and constructs, we used the human fibrosarcoma line HT1080. Two to three days after transfection, cells are plated into G418 and the resistant population or clones are isolated by standard means. To monitor dimerizer-induced apoptosis, cells are plated into a 96-well plate at either 5000 or 10,000 cells/well in MEM medium containing 10% fetal bovine serum. The next day, medium removed and replaced with freshmedium containing the test compound at various dilutions, in triplicate. In some cases, Actinomycin D is included at 50 ng/ml. Untreated wells are always included. The next day, medium is removed and replaced with medium containing 10% Alamar Blue viability indicator, which changes absorbance properties as a function of reducing agent released into the medium by cell metabolism. Alternatively, cells are counted. Optical density at the appropriate wavelength is measured using a platereader spectroscope.
For data set [2], the system named is cells expressing a construct containing p75 followed by 2 mutant FKBPs followed by a Fas effector domain. Kind of data set: Cell death monitored by Alamar Blue or hGH levels in hGH-expressing clones. The format is cell-based. An excerpt: As an alternative method for monitoring cell death, cells expressing a construct containing p75 followed by 2 mutant FKBPs followed by a Fas effector domain were transfected using an episomal vector, pCEP4 (Invitrogen Corp.) into which we had inserted DNA encoding hGH under control of a CMV promoter. The vector confers resistance to hygromycin. […] Monitoring Alamar Blue or hGH levels led to very similar EC50 curves for cell viability (measured as a % of control value) plotted against dimerizer concentration. In both cases the concentration of dimerizer corresponding to 50% of control was less than 1 nM.
For orientation: Alamar Blue is a resazurin reagent that responds to reducing activity.

The subject of data set [3] is FKBP-containing fusion proteins (wt FKBP). As to the kind of experiment: Transcription Assay, activation of reporter gene transcription (wt; stable). Particulars: at 1000 nM; each value an individual experiment. The format is cell-based, human.
Source text: The ability of the multimerizing agents to multimerize chimeric proteins may be measured cell-based assays by measuring the occurrence of an event triggered by such multimerization. For instance, one may use cells containing and capable of expressing DNAs encoding chimeric proteins comprising one or more immunophilin-derived ligand binding domains and one or more effector domains capable, upon multimerization, of actuating a biological response. We prefer to use cells which further contain a reporter gene under the transcriptional control of a regulatory element (i.e., promoter) which is responsive to the multimerization of the chimeric proteins (at least one of which contains an FKBP domain). […] The cells are grown or maintained in culture. A multimerizing agent is added to the culture medium and after a suitable incubation period (to permit gene expression and secretion, e.g. several hours or overnight) the presence of the reporter gene product is measured. Positive results, i.e., multimerization, correlates with transcription of the reporter gene as observed by the appearance of the reporter gene product. The reporter gene product may be a conveniently detectable protein (e.g. by ELISA) or may catalyze the production of a conveniently detectable product (e.g. colored).
Dimerizers may also be assayed for their ability to activate transcription of a reporter gene linked to a regulatory sequence responsive to the dimerization of FKBP-containing fusion proteins containing one or more transcription regulatory domains (e.g. DNA binding domains and transcription activation domains). We have made use of such as system as follows. […] The reporter plasmid (G5IL2-SEAP) used in these assays contains a gene that encodes for secreted alkaline phosphatase (SEAP) under the control of the minimal IL2 promoter and 5XGAL4 binding sites placed upstream of the promoter. In all cases, a plasmid expressing growth hormone was used as an internal control to moniter transfection efficiency. Approximately, 16 hrs after transfection, the media was removed and the cells were washed twice with PBS. Cells were refed with 2.5 ml of DMEM containing 10% serum and two hours later, synthetic dimerizers were added directly to the medium at appropriate concentrations in 5ul of ethanol carrier solution. Approximetely, 24 hrs after the addition of the drugs, 100 ul of the media was removed and assayed for SEAP activity and another 100 ul of the media was used to assay for growth hormone activity (to normalize for transfection efficiency).
The mark [4] stands for this setting: Synthetic Monomers table, normalized to value of FK506 run in the same experiment, read-out: F36V IC50.
The mark [5] stands for this setting: Synthetic Monomers table, normalized to value of FK506 run in the same experiment, read-out: wild-type IC50.
The mark [6] stands for this setting: Synthetic Monomers table, normalized to value of FK506 run in the same experiment, read-out: F36L IC50.
Setting [7] is: Synthetic Multimerizers table, monomer value in brackets, mean of duplicates, normalized to FK506 = […] (substituted phenyl/lower aliphatic series: to AP1903 values), read-out: FKBPF36V binding affinity IC50.
[8] abbreviates: read-out: FKBPwt binding affinity IC50.

pEC50, pIC50: −log10 of the molar value. Values joined by “and” are separate entries in the source; they are usually repeats but may differ in a detail not shown here. Identical values can stand only once. Like-named read-outs stand apart in the source and are kept apart here.

F36L mutant FKBP, sequence (P62942 2-108 F37L): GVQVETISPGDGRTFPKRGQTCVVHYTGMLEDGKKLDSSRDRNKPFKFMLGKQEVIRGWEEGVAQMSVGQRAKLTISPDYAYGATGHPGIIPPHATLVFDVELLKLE
wild-type human FKBP12, sequence (P62942 2-108): as the sequence (P62942 2-108 F37L) above, with L36F counted along it
Procedure for F36A mutant FKBP: (§1) Affinities of bumped synthetic ligands for FKBP were determined using a competitive assay based on fluorescence polarization (FP). […] The assay yields IC50 values that are related to the affinity of the competitive ligand for the protein.
(§2) All binding assay procedures were performed at room temperature. Serial dilutions of each protein were prepared in 50 mM potassium phosphate pH 7.8/150 mM NaCl/ 100µg/ml bovine gamma globulin ("FP buffer": prepared using only low-fluorescence reagents from Panvera), and 100 µl volumes transferred to wells of a Dynatech micro-fluor black 96-well fluorescence plate. 100 µl of 10 nM 4 in FP buffer plus 2% ethanol (prepared from an ethanol stock of the probe) was then added to each well with mixing. Duplicate control wells contained FP buffer instead of FKBP (for 0% probe binding) or 10 µM wild-type FKBP (for 100% binding).
(§3) The plates were stored covered in the dark for approximately 30 min to permit equilibration and then the fluorescence polarization of the sample in each well was read on a Jolley FPM-2 FP plate reader (Jolley Consulting and Research, Inc., Grayslake, IL) in accordance with the manufacturer's recommendations. Polarization (mP units) for each protein concentration was plotted (y axis) vs. final concentration of FKBP (x axis). Concentrations were determined by OD280 measurements. Arbitrary units were used for non-quantitated proteins.
(§4) Serial 10-fold dilutions of each synthetic ligand were prepared in 100% ethanol in glass vials and stored on ice. All other manipulations were performed at room temperature. […] 2.0 µl samples of the synthetic ligands were then transferred in duplicate to the wells with mixing. Finally, a probe solution was prepared containing 10 nM 4 in 0.1% ethanol/FP buffer, and 100 µl added to each well with mixing. Duplicate control wells contained ethanol instead of FKBP ligand (for 100% probe binding) or ethanol instead of FKBP ligand and FP buffer instead of FKBP (0% binding).
(§5) The plates were stored covered in the dark for approximately 30 min to permit equilibration and then the fluorescence polarization of the sample in each well read on a Jolley FPM-2 FP plate reader (Jolley Consulting and Research, Inc., Grayslake, IL) in accordance with the manufacturer's recommendations. The mean polarization (mP units) for each competitor concentration, in some cases converted to % total binding by reference to the control values, was plotted (y axis) vs. log molar final concentration of competitor (x axis). […] For incomplete curves the IC50 was determined by interpolation.
Procedure for F36I mutant FKBP: as §1, §2, §3, §4, §5
Procedure for F36L mutant FKBP: as §1, §2, §3, §4, §5
Procedure for F36M mutant FKBP: as §1, §2, §3, §4, §5
Procedure for mutant (F36V) FKBP: as §1, §2, §3, §4, §5
Procedure for wild-type human FKBP12: as §1, §2, §3
Serial 10-fold dilutions of each synthetic ligand were prepared in 100% ethanol in glass vials and stored on ice. All other manipulations were performed at room temperature. […] Finally, a probe solution was prepared containing 10 nM 4 in 0.1% ethanol/FP buffer, and 100 µl added to each well with mixing. Duplicate control wells contained ethanol instead of FKBP ligand (for 100% probe binding) or ethanol instead of FKBP ligand and FP buffer instead of FKBP (0% binding).
as §5

On to `COc1ccc(CCC(OC(=O)C2CCCCN2C(=O)C(Cc2ccccc2)c2ccccc2)c2cccc(OCC(=O)O)c2)cc1OC` (mixture of isomers) [AP1831], for which the negative logarithm of the IC50 (pIC50) (usually the negative decadic logarithm of the IC50, by convention in mol/L) on mutant (F36V) FKBP (setting [4]) is 6.82; at wild-type human FKBP12 (setting [5]) it was below 5.00; at F36L mutant FKBP (setting [6]), 6.66.
As for `COc1ccc(CCC(OC(=O)C2CCCCN2C(=O)C(c2ccccc2)C2CCCC2)c2cccc(OCC(=O)O)c2)cc1OC` (mixture of isomers) [AP1778], the pIC50 on mutant (F36V) FKBP (setting [4]) is 7.66; at wild-type human FKBP12 (setting [5]) it was 4.80; at F36L mutant FKBP (setting [6]), 7.49.
On the same counts, the results for `COc1ccc(CCC(OC(=O)C2CCCCN2C(=O)C(c2ccccc2)C(C)C)c2cccc(OCC(=O)O)c2)cc1OC` (mixture of isomers) [AP1781] are 7.59, 4.41 and 7.48.
On the same counts, the results for `CCC(C)(C)C(=O)C(=O)N1CCCC[C@H]1C(=O)O[C@H](CCc1ccc(OC)c(OC)c1)c1cccc(OCC(=O)O)c1` [AP1497] are 7.36, 7.07 and 7.33.
Consider `COc1ccc(CC[C@@H](OC(=O)[C@@H]2CCCCN2C(=O)Cc2ccccc2)c2cccc(OCC(=O)O)c2)cc1OC` [AP1780], for which the pIC50 on F36I mutant FKBP was 5.69; at mutant (F36V) FKBP (setting [4]) it was 5.82; at F36M mutant FKBP, 5.59; at wild-type human FKBP12 (setting [5]), 4.67; at F36A mutant FKBP, 5.08; at F36L mutant FKBP (read-out: F36L IC50), 5.45.
For the compound `CC[C@H](C(=O)N1CCCC[C@H]1C(=O)O[C@H](CCc1ccc(OC)c(OC)c1)c1cccc(OCC(=O)O)c1)c1cc(OC)c(OC)c(OC)c1` [AP1867], the pIC50 on mutant (F36V) FKBP (setting [7]) is 8.74; on wild-type human FKBP12 (setting [8]), 5.71; on F36L mutant FKBP (read-out: FKBPF36L binding affinity IC50), 8.21.
On to `CC[C@H](C(=O)N1CCCC[C@H]1C(=O)O[C@H](CCN1CCOCC1)c1cccc(OCC(=O)O)c1)c1cc(OC)c(OC)c(OC)c1` [AP14246, (1R)-1-(3-(carboxymethoxy)phenyl)-3-(morpholino)-1-propyl (2S)-1-((2S)-(3,4,5-trimethoxyphenyl)butyryl)-2-piperdine carboxylate], for which the pIC50 at mutant (F36V) FKBP (setting [7]) is 7.78.
Regarding `COc1ccc(CC[C@@H](OC(=O)[C@@H]2CCCCN2C(=O)[C@H](C)c2ccccc2)c2cccc(OCC(=O)O)c2)cc1OC` [AP1782], the pIC50 on F36I mutant FKBP is 5.98; at mutant (F36V) FKBP (setting [4]) it was 6.23; at F36M mutant FKBP it was 6.03; at wild-type human FKBP12 (setting [5]), below 4.00; on F36A mutant FKBP it was 5.84; at F36L mutant FKBP (setting [6]) it was 5.85.
Take `COc1ccc(CC[C@@H](OC(=O)[C@@H]2CCCCN2C(=O)C(c2ccccc2)c2ccccc2)c2cccc(OCC(=O)O)c2)cc1OC` [AP14245]: the pIC50 at F36I mutant FKBP is 6.25; on mutant (F36V) FKBP (setting [4]), 6.56; on F36M mutant FKBP, 6.76; at F36A mutant FKBP, 6.90; at F36L mutant FKBP (setting [6]), 6.16.
Consider `CCC(CC)NC(=O)N1CCCC[C@H]1C(=O)O[C@H](CCc1ccc(OC)c(OC)c1)c1cccc(OCC(=O)NCCNC(=O)COc2cccc([C@@H](CCc3ccc(OC)c(OC)c3)OC(=O)[C@@H]3CCCCN3C(=O)NC(CC)CC)c2)c1` [AP1966], for which the pIC50 at mutant (F36V) FKBP (setting [7]) was 7.24.
As to AP1903, the pEC50 in data set [1] (mean values, read-out: Fas killing (wt, stable) EC50) was 7.30 to 7.40; in data set [2] (Alamar Blue readout, read-out: concentration of dimerizer corresponding to 50% of control (cell viability, Alamar Blue)), above 9.00; in data set [2] (hGH readout, read-out: concentration of dimerizer corresponding to 50% of control (hGH levels)), above 9.00.
Regarding `CC[C@H](C(=O)N1CCCC[C@H]1C(=O)O[C@H](CCc1ccc(OC)c(OC)c1)c1cccc(OCC(=O)NCCNC(=O)COc2cccc([C@@H](CCc3ccc(OC)c(OC)c3)OC(=O)[C@@H]3CCCCN3C(=O)[C@@H](CC)c3ccccc3)c2)c1)c1ccccc1` [AP1889], in data set [3], the “activation of transcription (wt; stable): % @ 1000” value (“activation … % @ 1000” for short) is 0% (2×) and 1%. Also, the “Fas killing (wt, stable): % @ 1000” value in data set [1] is recorded as 0% @ 1000. Moreover, the pIC50 at mutant (F36V) FKBP (setting [7]) is 5.00.
On to `CCC(C(=O)N1CCCC[C@H]1C(=O)O[C@H](CCc1ccc(OC)c(OC)c1)c1cccc(OCC(=O)O)c1)c1ccc2c(c1)OCO2` (some centres unmarked) [AP1839], for which the pIC50 on F36I mutant FKBP was 7.59; on mutant (F36V) FKBP (setting [4]), 8.05; on mutant (F36V) FKBP (setting [7]), 8.27; at F36M mutant FKBP, 7.72; on wild-type human FKBP12 (setting [5]), 4.87; on wild-type human FKBP12 (setting [8]) it was 4.78. The figures for the pIC50 at F36A mutant FKBP and on F36L mutant FKBP (read-out: F36L IC50) were 7.49 and 7.24, respectively.
For the compound `COc1ccc(CC[C@@H](OC(=O)[C@@H]2CCCCN2C(=O)[C@@H](C)c2ccccc2)c2cccc(OCC(=O)O)c2)cc1OC` [AP1784], the pIC50 on F36I mutant FKBP was 6.93; on mutant (F36V) FKBP (setting [4]) it was 7.03; at F36M mutant FKBP it was 6.38; on wild-type human FKBP12 (setting [5]), 4.80; at F36A mutant FKBP it was 6.77; on F36L mutant FKBP (setting [6]), 7.04.
With `CCC(C(=O)N1CCCC[C@H]1C(=O)O[C@H](CCc1ccc(OC)c(OC)c1)c1cccc(OCC(=O)NCCNC(=O)COc2cccc([C@@H](CCc3ccc(OC)c(OC)c3)OC(=O)[C@@H]3CCCCN3C(=O)C(CC)c3ccc4c(c3)OCO4)c2)c1)c1ccc2c(c1)OCO2` (some centres unmarked) [AP1885], the “activation … % @ 1000” value in data set [3] came out at 0% @ 1000. Moreover, the “Fas killing (wt, stable): % @ 1000” value in data set [1] came out at 0% @ 1000. Moreover, on mutant (F36V) FKBP (setting [7]), the pIC50 is 7.23.
For `CC[C@@H](C(=O)N1CCCC[C@H]1C(=O)O[C@H](CCc1ccc(OC)c(OC)c1)c1cccc(OCC(=O)O)c1)c1ccccc1` [AP1769], the pIC50 on F36I mutant FKBP was 6.46; at mutant (F36V) FKBP (setting [4]), 6.88; at F36M mutant FKBP, 6.71; on wild-type human FKBP12 (setting [5]), 3.66; at F36A mutant FKBP, 6.34; at F36L mutant FKBP (setting [6]), 6.62.
Take `CCC(CC)C(=O)N1CCCC[C@H]1C(=O)O[C@H](CCc1ccc(OC)c(OC)c1)c1cccc(OCC(=O)NCCNC(=O)COc2cccc([C@@H](CCc3ccc(OC)c(OC)c3)OC(=O)[C@@H]3CCCCN3C(=O)C(CC)CC)c2)c1` [AP1891]: the “activation … % @ 1000” value in [3] was 0% @ 1000. In addition, in data set [1], the “Fas killing (wt, stable): % @ 1000” value is on record as 0% @ 1000.

These data come from patent publication EP0888303B1, “SYNTHETIC DERIVATIVES OF RAPAMYCIN AS MULTIMERIZING AGENTS FOR CHIMERIC PROTEINS WITH IMMUNOPHILIN-DERIVED DOMAINS” (ARIAD Pharmaceuticals, Inc, priority 1996, dated 1997).
